The test system of one data set is Nephotettix cincticeps. The data set is described as follows: Action against Nephotettix cincticeps (sprayed rice plants). The conditions noted are these: 504 h, 400 ppm spray on rice plants, larvae in the 2nd and 3rd stages, evaluation 21 days later, read-out: percentage reduction in the population (% activity). The format is in vivo. The method, then: Action against Nephotettix cincticeps Rice plants are sprayed with an aqueous emulsion comprising 400 ppm of test compound. After the spray coating has dried, the plants are populated with Nephotettix cincticeps larvae in the 2nd and 3rd stages. Evaluation is made 21 days later. The percentage reduction in the population (% activity) is determined by comparing the number of surviving leaf hoppers on the treated plants with that on untreated plants.

In data set [1] the test system is Myzus persicae. As to the kind of experiment: Action against Myzus persicae (sprayed pea seedlings). Particulars: 400 ppm spray on infested pea seedlings, 20°, evaluation 3 to 7 days later, read-out: percentage reduction in the population (% activity). The format is in vivo. As to the method: Action against Myzus persicae Pea seedlings are infested with Myzus persicae, then sprayed with a spray mixture comprising 400 ppm of test compound and then incubated at 20°. Evaluation is made 3 to 7 days later. The percentage reduction in the population (% activity) is determined by comparing the number of dead aphids on the treated plants with that on untreated plants.

For the next data set, the system named is Diabrotica balteata. The data set is described as follows: Action against Diabrotica balteata (sprayed maize seedlings). It counts as in vivo. Particulars: 144 h, 400 ppm spray on maize seedlings, 10 larvae in the second stage, evaluation 6 days later, read-out: percentage reduction in the population (% activity). As to the method: Action against Diabrotica balteata Maize seedlings are sprayed with an aqueous emulsion comprising 400 ppm of test compound. After the spray coating has dried, the seedlings are populated with 10 Diabrotica balteata larvae in the second stage and placed in a plastics container. Evaluation is made 6 days later. The percentage reduction in the population (% activity) is determined by comparing the number of dead larvae on the treated plants with that on untreated plants.

Data set [2] deals with Myzus persicae. The data set is described as follows: Systemic action against Myzus persicae (roots in spray mixture). It counts as in vivo. Particulars: systemic: pea seedling roots in 400 ppm spray mixture, 20° C., evaluation 3 to 7 days later, read-out: percentage reduction in the population (% activity). The method, then: Systemic action against Myzus persicae Pea seedlings are infested with Myzus persicae, then placed with their roots in a spray mixture comprising 400 ppm of test compound and then incubated at 20° C. Evaluation is made 3 to 7 days later. The percentage reduction in the population (% activity) is determined by comparing the number of dead aphids on the treated plants with that on untreated plants.

The test system of another data set is Heliothis virescens. As to the kind of experiment: Action against Heliothis virescens (sprayed soybean plants). The format is in vivo. Particulars: 144 h, 400 ppm spray on young soybean plants, 10 caterpillars in the first stage, evaluation 6 days later, read-out: percentage reduction in the population and percentage reduction in feeding damage (% activity). The method, then: Action against Heliothis virescens Young soybean plants are sprayed with an aqueous emulsion comprising 400 ppm of test compound. After the spray coating has dried, the plants are populated with 10 Heliothis virescens caterpillars in the first stage and placed in a plastics container. Evaluation is made 6 days later. The percentage reduction in the population and the percentage reduction in feeding damage (% activity) are determined by comparing the number of dead caterpillars and the feeding damage on the treated plants with that on untreated plants.

Another data set deals with Nilaparvata lugens. As to the kind of experiment: Action against Nilaparvata lugens (sprayed rice plants). The conditions noted are these: 504 h, 400 ppm spray on rice plants, larvae in the 2nd and 3rd stages, evaluation 21 days later, read-out: percentage reduction in the population (% activity). It counts as in vivo. As to the method:
Action against Nilaparvata lugens Rice plants are sprayed with an aqueous emulsion comprising 400 ppm of test compound. After the spray coating has dried, the rice plants are populated with Nilaparvata lugens larvae in the 2nd and 3rd stages. Evaluation is made 21 days later. The percentage reduction in the population (% activity) is determined by comparing the number of surviving plant hoppers on the treated plants with that on untreated plants.

A further data set deals with Plutella xylostella. As to the kind of experiment: Action against Plutella xylostella caterpillars. The format is in vivo. The conditions noted are these: 72 h, 400 ppm spray on young cabbage plants, 10 caterpillars in the third stage, evaluation 3 days later, read-out: percentage reduction in the population and percentage reduction in feeding damage (% activity). As to the method:
Action against Plutella xylostella caterpillars Young cabbage plants are sprayed with an aqueous emulsion comprising 400 ppm of test compound. After the spray coating has dried, the cabbage plants are populated with 10 Plutella xylostella caterpillars in the third stage and placed in a plastics container. Evaluation is made 3 days later. The percentage reduction in the population and the percentage reduction in feeding damage (% activity) are determined by comparing the number of dead caterpillars and the feeding damage on the treated plants with that on untreated plants.

The subject of the next data set is Ctenocephalides felis. The data set is described as follows: Systemic action against Ctenocephalides felis (membrane blood feeding). Particulars: 50 ppm in blood, 37°, 20 adult fleas, evaluation 24 and 48 hours, read-out: percentage reduction in the population (% activity). It counts as in vivo. As to the method: Systemic action against Ctenocephalides felis 20 adult fleas of the Ctenocephalides felis species are placed in a flat round cage closed on both sides with gauze. A vessel sealed on the underside with a parafilm membrane is placed on the cage. The vessel contains blood comprising 50 ppm of test compound and maintained at a constant 37°. The fleas ingest the blood through the membrane. Evaluation is made 24 and 48 hours after the start of the test. The percentage reduction in the population (% activity) is determined by comparing the number of dead Ctenocephalides felis fleas when treated blood is used with that when untreated blood is used. The blood is replaced by fresh treated blood 24 hours after treatment.

Another data set concerns Aphis craccivora. As to the kind of experiment: Action against Aphis craccivora (sprayed pea seedlings). The format is in vivo. Particulars: 400 ppm spray on infested pea seedlings, 20° C., evaluation 3 to 7 days later, read-out: percentage reduction in the population (% activity). As to the method: Action against Aphis craccivora Pea seedlings are infested with Aphis craccivora, then sprayed with a spray mixture comprising 400 ppm of test compound and then incubated at 20° C. Evaluation is made 3 to 7 days later. The percentage reduction in the population (% activity) is determined by comparing the number of dead Aphis craccivora individuals on the treated plants with that on untreated plants.

The subject of the next data set is Anthonomus grandis. The data set is described as follows: Action against Anthonomus grandis (sprayed cotton plants). The format is in vivo. Particulars: 72 h, 400 ppm spray on young cotton plants, 10 adults, evaluation 3 days later, read-out: percentage reduction in the population and percentage reduction in feeding damage (% activity). The method, then: Action against Anthonomus […] Young cotton plants are sprayed with an aqueous emulsion comprising 400 ppm of test compound. After the spray coating has dried, the plants are populated with 10 Anthonomus grandis adults and placed in a plastics container. Evaluation is made 3 days later. The percentage reduction in the population and the percentage reduction in feeding damage (% activity) are determined by comparing the number of dead beetles and the feeding damage on the treated plants with that on untreated plants.

Drawing on patent US6353001B1, “2-nitromethylidene/2-cyanimino/2-nitro-imino-pyrrolidines and piperidines, intermediates, and their use as pesticides” (Syngenta Investment Corporation, priority 1993, dated 2002), this text covers inhibition and melting point for four compounds.

The term melting point denotes the temperature, or range, at which the solid turns liquid.

With `CCN1CCC(Cc2ccc(Cl)nc2)/C1=C/[N+](=O)[O-]` (stereo not shown) [Compound 5.5, 3-(2-Chloropyrid-5-yl-methyl)-1-ethyl-2-nitromethylidene-pyrrolidine], the inhibition at 400 ppm in the data set with Nephotettix cincticeps was over 80%.

`O=[N+]([O-])C=C1NCCCC1Cc1ccc(Cl)nc1` (stereo not shown) [Compound 5.16, 3-(2-chloropyrid-5-yl-methyl)-2-nitromethylidene-piperidine] had a melting point of 179 to 181 °C. Besides, the inhibition at 400 ppm with Myzus persicae [1] is over 80%. In the data set with Diabrotica balteata, the inhibition at 400 ppm is over 80%.

In the case of `O=[N+]([O-])/C=C1\NCCC1Cc1ccc(Cl)nc1` (stereo not shown) [Compound 5.3, 3-(2-Chloropyrid-5-yl-methyl)2-nitromethylidene-pyrrolidine], the melting point lay within 159 to 161 °C. Besides, the inhibition at 400 ppm in the data set with Myzus persicae [1] is over 80%. For the same compound, the inhibition at 400 ppm in the data set with Myzus persicae [2] was over 80%. For the same compound, the inhibition at 400 ppm in the data set on Heliothis virescens is over 80%. In the data set on Nilaparvata lugens, the inhibition at 400 ppm was over 80%. The inhibition at 400 ppm with Nephotettix cincticeps is over 80%. For the same compound, the inhibition at 400 ppm in the data set with Plutella xylostella is over 80%. Moreover, the inhibition at 50 ppm in the data set with Ctenocephalides felis was over 80%. In the data set with Aphis craccivora, the inhibition at 400 ppm is over 80%. The inhibition at 400 ppm in the data set on Anthonomus grandis was over 80%.

Turning to `CN1CCC(Cc2ccc(Cl)nc2)/C1=C/[N+](=O)[O-]` (stereo not shown) [Compound 5.4, 3-(2-Chloropyrid-5-yl-methyl)-1methyl-2-nitromethylidene-pyrrolidine], the inhibition at 400 ppm in the data set with Myzus persicae [1], with Myzus persicae [2], in the data set on Nilaparvata lugens, in the data set on Nephotettix cincticeps and with Anthonomus grandis was over 80% each time.
